The results in this text go back to ChEMBL document CHEMBL4665904, “Novel APOL1 Inhibitors for Treating Kidney Diseases” (ACS Med Chem Lett, 2020).

For one assay, the system named is Trypanosoma brucei. Put plainly: Trypanocidal activity against bloodstream forms of Trypanosoma brucei using recombinant APOL1 assessed as cell viability incubated for 16 hrs by cell lysis based alamar blue assay. It is filed as functional, organism-based. Background: Alamar Blue is a resazurin reagent that responds to reducing activity.
For the next assay, the target named is T1, Apolipoprotein L1 (Homo sapiens, UniProt O14791).
T1 sequence (O14791 whole entry): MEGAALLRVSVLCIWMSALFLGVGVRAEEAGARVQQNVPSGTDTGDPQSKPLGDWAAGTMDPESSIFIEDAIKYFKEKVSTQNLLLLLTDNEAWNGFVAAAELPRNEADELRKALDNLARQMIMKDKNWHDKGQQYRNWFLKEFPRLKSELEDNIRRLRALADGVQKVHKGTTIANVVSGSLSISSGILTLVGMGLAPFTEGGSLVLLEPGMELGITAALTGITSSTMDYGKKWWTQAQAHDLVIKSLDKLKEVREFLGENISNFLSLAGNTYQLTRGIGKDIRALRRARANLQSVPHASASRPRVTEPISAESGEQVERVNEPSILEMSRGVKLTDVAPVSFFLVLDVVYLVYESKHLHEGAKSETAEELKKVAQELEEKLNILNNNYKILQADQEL
Briefly: Inhibition of APOL1 (unknown origin) in HEK293 cells assessed as thallium influx incubated for 30 mins by FLIPR based thallium influx assay. It is filed as cell-based.

Some results are limits rather than exact numbers.

For the compound `O=C(CCc1c(-c2ccccc2)[nH]c2c(F)cccc12)N[C@@H]1C(=O)NC[C@H]1O`, the half-inhibitory concentration (IC50) in the assay with Trypanosoma brucei and on Apolipoprotein L1 was < 250 nM in each case.
For `O=C(CCc1c(-c2ccc(F)cc2)[nH]c2c(F)cc(F)cc12)N[C@@H]1C(=O)NC[C@@H]1O`, the IC50 in the assay with Trypanosoma brucei and at Apolipoprotein L1 was < 250 nM in each case.
As for `O=C(CCc1c(-c2ccccc2)[nH]c2cc(F)c(F)cc12)N[C@@H]1C(=O)NC[C@H]1O`, the IC50 in the assay on Trypanosoma brucei and at Apolipoprotein L1 was < 250 nM each time.
Consider `COc1ccc(-c2[nH]c3ccccc3c2CCC(=O)N[C@@H]2C(=O)NC[C@H]2O)cc1`, for which the IC50 in the assay with Trypanosoma brucei and on Apolipoprotein L1 was < 250 nM in each case.
In the case of `N#Cc1ccc(-c2[nH]c3c(F)cc(F)cc3c2CCC(=O)N[C@H]2CCNC2=O)cc1`, the IC50 in the assay on Trypanosoma brucei and on Apolipoprotein L1 was < 250 nM each time.
For `N#Cc1cc(F)cc2c(CCC(=O)N[C@@H]3C(=O)NC[C@H]3O)c(-c3ccc(F)cc3)[nH]c12`, the IC50 in the assay with Trypanosoma brucei and at Apolipoprotein L1 was < 250 nM in each case.

In general, IC50 refers to the midpoint of a concentration-inhibition curve.
